Measurements published in paper PMC10725471, “Chemical modulation of cytosolic BAX homodimer potentiates BAX activation and apoptosis” (Nature Communications, 2023).
Where a name gives a salt, the structure may show the parent alone.

Legend:
[1] = target: human BAX WT in HCT116 BAX KO cells (human) (UniProt Q07812); experiment: SEC; cytosolic fraction of HCT116 BAX KO cells reconstituted with BAX WT, P168G or E75K, untreated; Superdex 200 10/300 GL in IBc buffer, 4 °C; fractions blotted for BAX
BAX in CALU-6 cells = target: T1, BAX in CALU-6 cells (Homo sapiens, UniProt Q07812); experiment: Active BAX immunoprecipitation with 6A7 antibody (BAX conformational change assay); type: cell-based; details: 20 µM, 2 hrs
T1 construct: endogenous in cells; host or cells: CALU-6
T1 sequence (Q07812 whole entry): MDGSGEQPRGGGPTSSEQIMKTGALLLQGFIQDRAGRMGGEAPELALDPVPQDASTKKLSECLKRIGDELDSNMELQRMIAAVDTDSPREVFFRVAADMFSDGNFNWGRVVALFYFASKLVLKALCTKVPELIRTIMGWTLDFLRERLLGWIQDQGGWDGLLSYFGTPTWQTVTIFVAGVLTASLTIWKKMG
Experimental: Cells were harvested and lysed with a 1% CHAPS lysis buffer (150 mM NaCl, 10 mM HEPES, pH 7.4, 1% CHAPS) supplemented with Halt protease inhibitor cocktail (Thermofisher Cat. 1861279). Whole-cell lysates were subjected to immunoprecipitation followed by immunoblotting against total BAX. Briefly, 500–1000 μg total protein in 600 µl was collected and incubated with 12 µl (50% slurry) of pre-equilibrated protein G agarose beads (Santa Cruz Biotechnology) for 30 min at 4 °C on a rotator. The precleared samples were then incubated with 5 µl of 6A7 antibody (Santa Cruz Biotechnology Cat. 23959) overnight at 4 °C. The next day, 20 µl (50% slurry) of pre-equilibrated G agarose beads (Santa Cruz Biotechnology) were added to the samples and incubated for 2 h at 4 °C. The beads were pelleted, washed with the lysis buffer 3 times, and protein eluted by heating the beads at 90 °C for 15 minutes in 1X LDS/DTT loading buffer. The immunoprecipitates were subjected to electrophoresis on 4–12% NuPage gels (Life Technologies). For visualization of proteins using Odyssey Infrared Imaging System (LI-COR Biosciences), membranes were blocked in PBS containing 5% milk powder for 1 hour at room temperature. Primary antibodies were incubated overnight at 4 °C. After washing, membranes were incubated with an IRdye800-conjugated goat anti-rabbit IgG (1:10, 000) or IRDye800- conjugated goat anti-mouse IgG (1:20,000 dilution) secondary antibodies (LI-COR Biosciences). Antibodies were used to detect the following proteins on membrane: BAX (Cell Signaling Cat. 2772) and β-Actin (Sigma Cat. A1978) or β-tubulin (Cell Signaling Cat. 2146).

SUDHL-5 cells = experiment: Cell viability (CellTiter-Glo) assay; type: cell-based; details: Homo sapiens, SU-DHL-5; SUDHL-5, 72 hrs
[2] = system: CALU-6 CRISPR/Cas9 BAX KO cells; experiment: Caspase 3/7 activation assay; type: cell-based, human; details: CALU-6 BAX KO, 8 hrs
[3] = target: FITC-BIM SAHB, hydrocarbon-stapled peptide corresponding to the BH3 domain of BIM; experiment: fluorescence polarisation; direct binding: FITC-BIM SAHB (25 nM) with serial dilutions of full-length BAX; 10-minute time-point
[4] = system: HCT116 BAX WT, HCT116 BAX P168G and HCT116 BAX E75K cells; experiment: Caspase 3/7 activation assay; type: cell-based, human; details: all HCT116 BAX cell lines, titration, 6 hrs
[5] = system: HCT116 BAX E75K cells (HCT116 BAX KO reconstituted with BAX E75K, cytosolic monomer); experiment: Cell viability (CellTiter-Glo) assay; type: cell-based; details: Homo sapiens, HCT-116, after 24 h
[6] = system: HCT116 BAX WT cells (HCT116 BAX KO reconstituted with BAX WT, cytosolic dimer); experiment: Cell viability (CellTiter-Glo) assay; type: cell-based; details: Homo sapiens, HCT-116, 24 h
HCT116 BAX P168G cells = experiment: Caspase 3/7 activation assay; type: cell-based, human
[7] = system: HCT116 BAX P168G cells (HCT116 BAX KO reconstituted with BAX P168G, cytosolic dimer); experiment: Cell viability (CellTiter-Glo) assay; details: up to highest concentration of 2 μM, 24 h
[8] = target: cytosolic BAX (endogenous, human cell lines) (human (endogenous in human cell lines)) (UniProt Q07812); experiment: SEC; cytosolic fraction (2.5 mg, lysis without detergent) on Superdex 200 10/300 GL in IBc buffer (10 mM Tris HCl, 1 mM EGTA, 200 mM sucrose, pH 7.5), 4 °C; fractions blotted for BAX; cell lines with BAX centered at 14–14.5 ml (CALU-6, HCT-116, Namalwa, BEAS-2B, IMR90 and other lines of the panel)

recombinant human full-length (aa1–192) wild-type BAX, sequence (Q07812 whole entry, the tested form may be a part): as the sequence (Q07812 whole entry) above

human BAX WT in HCT116 BAX KO cells (from UniProt Q07812 1-192) (natural protein)
stoichiometry N [1]: 2

O=C(O)c1ccc(-n2c(/C=C/C3CCCC3)nc3ccc(I)cc3c2=O)cc1 [BDM19.2]
6A7 epitope exposure and activation of BAX (result in words) (BAX in CALU-6 cells): none of the analogs

Cc1cccc(/C=C/c2nc3ccc(I)cc3c(=O)n2-c2ccc(C(=O)O)cc2)c1 [BDM19]
IC50 (SUDHL-5 cells): 1360 nM | caspase-3/7 activation (result in words) [2]: no caspase-3/7 activation was observed

Cc1cccc(/C=C/c2nc3c(c(=O)n2-c2ccc(C(=O)O)cc2)CCCC3)c1 [BDM19.4]
6A7 epitope exposure and activation of BAX (result in words) (BAX in CALU-6 cells): none of the analogs

recombinant human full-length (aa1–192) wild-type BAX (from UniProt Q07812 1-192) (natural protein)
EC75 [3]: 125 nM

CC1(C)CCC(CN2CCN(c3ccc(C(=O)NS(=O)(=O)c4ccc(NCC5CCOCC5)c([N+](=O)[O-])c4)c(Oc4cnc5[nH]ccc5c4)c3)CC2)=C(c2ccc(Cl)cc2)C1 [ABT-199, Venetoclax]
caspase-3/7 activity (result in words) [4]: failed to induce caspase-3/7 activity

CC1(C)CCC(c2ccc(Cl)cc2)=C(CN2CCN(c3ccc(C(=O)NS(=O)(=O)c4ccc(N[C@H](CCN5CCOCC5)CSc5ccccc5)c(S(=O)(=O)C(F)(F)F)c4)cc3)CC2)C1 [ABT-263, Navitoclax]
IC50 [5]: 45 nM | IC50 [6]: 191 nM | caspase-3/7 activity (result in words) (HCT116 BAX P168G cells; titration, 6 hrs): did not show caspase-3/7 activity | caspase-3/7 activation (result in words) [2]: no caspase-3/7 activation was observed | cell viability (result in words) [7]: did not show decreased viability

O=C(O)c1ccc(-n2c(/C=C/C3CC3)nc3ccc(I)cc3c2=O)cc1 [BDM19.3]
6A7 epitope exposure and activation of BAX (result in words) (BAX in CALU-6 cells): none of the analogs

COc1cccc2c1C(=O)c1c(O)c3c(c(O)c1C2=O)C[C@@](O)(C(=O)CO)C[C@@H]3O[C@H]1C[C@H](N)[C@H](O)[C@H](C)O1 [doxorubicin, Doxorubicin hydrochloride]
caspase-3/7 activation (result in words) (HCT116 BAX P168G cells; various concentrations, 24 hrs): not responsive

cytosolic BAX (endogenous, human cell lines) (from UniProt Q07812 1-192) (natural protein)
stoichiometry N [8]: 2
